Assay results reported in US20240397979A1, “METHODS FOR DELIVERING BENEFICIAL NUTRIENTS TO INVERTEBRATES THROUGH A MICROORGANISM DEFICIENT IN ANTINUTRIENTS” (APIX BIOSCIENCES, priority 2021, published 2024).

Tests used:
honey bees = assay: Brood production of honey bee colonies on diets with ergosterol; type: in vivo, Apis mellifera; conditions: bee food with ergosterol vs without, FIGS. 3 and 4
Procedure: Example 3 and 4. Brood Production: Honey Bees Cannot Produce Brood on Diets with high quantities of ergosterol Method: Fully functional insulated styrofoam […] nucs comprised 5 mini frames populated with adult workers and 1 mated laying queen bee were populated with 300-400 ml of young adult workers ( N<1,000 bees of mixed ages). […] Each treatment was tested with 3-6 colonies; each colony was fed with a 60-100 g patty (solid diet) on the top feeder fitted with a mesh floor. Diet was fed on the first day and again on day 6; the quantity consumed was measured on day 6 and day 15. If no larvae or eggs/queen are observed by day 6 then the experiment is terminated. The number of capped brood cells was counted every 15 days. The number of bee seams was estimated during each inspection. Sugar syrup (34%) and water was provided in feeders inside the tent to prevent carbohydrate starvation and to stimulate foraging activity.

Nosema ceranae = assay: Nosema infection of bees fed ergosterol-containing diet; type: in vivo; conditions: diet supplemented with ergosterol, FIG. 5
Description: Method: Newly emerged adult worker honey bees (Apis mellifera) or adult worker bumble bees (Bombus terrestris) were reared in an assay to test whether diet induced an increase in Nosema ceranae infection. Bees had access to a diet composed of 15% protein, 6% fat, 78% carbohydrates and 1% vitamins and minerals and adlibitum access to water and sucrose solution. One treatment diet contained the ergosterol and the other contained no sterol. Newly emerged bees were removed from the brood frame and cohorts of 30 bees per replicate were housed in plastic rearing cages. In all experiments, 10 cohorts of ˜30 bees each were used for each treatment group. Consumption of each diet was measured every 24 h for 14 days.
Nosema ceranae infection of each cohort was produced as in Tischler et al. (2017). Briefly, Nosema spores were collected in 10 bees, concentrated and cultured. Cultures were added to 30% sucrose solutions and fed to the bees.

[1] = system: adult worker honey bees (Apis mellifera) or adult worker bumble bees (Bombus terrestris); assay: Two-choice preference assay: diet with ergosterol vs diet with no sterol; type: in vivo; conditions: feed containing ergosterol vs food without it, FIG. 1
Procedure: Example 1. Preference Assay: Bees Avoid Ergosterol in Foods Method: Newly emerged adult worker honey bees (Apis mellifera) or adult worker bumble bees (Bombus terrestris) were tested in a two-choice preference assay in which bees had access to two diets and adlibitum access to water. One treatment diet contained the ergosterol and the other contained no sterol. Newly emerged bees were removed from the brood frame and cohorts of 30 bees per replicate were housed in plastic rearing cages. In all experiments, 10 cohorts of ˜30 bees each were used for each treatment group. In all diets carbohydrate was maintained at 60% using powdered sugar and fat was maintained at 8% using an emulsion. Consumption of each diet was measured every 24 h for 5 days. Preference index was calculated as (amount of treatment consumed-amount of control consumed)/(total amount of food consumed).

bee gut = assay: Passage of dietary ergosterol across the bee gut; type: in vivo; conditions: ergosterol in bee diet
adult worker honey bees = assay: Survival of bee cohorts on diets containing ergosterol; type: in vivo, Apis mellifera; conditions: bees fed diets containing ergosterol, FIG. 2
Description: Example 2: Survival: Bees are Less Likely to Survive on Diets Containing Ergosterol Method: Newly emerged adult worker honey bees fed with a diet treatment and ad libitum access to water. The treatment diet contained the ergosterol. Newly-emerged bees were removed from the brood frame and cohorts of 30 bees per replicate were housed in plastic rearing cages. In all experiments, 10 cohorts of ˜30 bees each were used for each treatment group. In all diets carbohydrate was maintained at 60% using powdered sugar and fat was maintained at 8% using an emulsion. Consumption of each diet was measured every day over the course of the experiment. The number of bees alive in the box was counted each day for 14 days.

With `CC(C)[C@@H](C)/C=C/[C@@H](C)[C@H]1CC[C@H]2C3=CC=C4C[C@@H](O)CC[C@]4(C)[C@H]3CC[C@]12C` [ergosterol] the Brood production (honey bees) was “less brood”, the “Nosema population in the gut” value (Nosema ceranae) was “increases the Nosema population in the gut” and the Mortality (Nosema ceranae; bees inoculated with Nosema ceranae) was “higher mortality”. The Diet preference [1] was “bees actively avoid feed containing ergosterol”, the “Crossing of the bee gut” value (bee gut) was “does not cross the bee gut” and the Lifespan (adult worker honey bees) was “shorter lifespans”.
